According to ChEMBL document CHEMBL3608226, “Synthesis and biological evaluation of phaitanthrin congeners as anti-mycobacterial agents” (2015):
Values after ≈ are worked out from the molar mass of the structure shown.

System: Mycobacterium tuberculosis
Assay: Antimycobacterial activity against multi-drug resistant Mycobacterium tuberculosis
Assay type: functional

| SMILES | MIC [µg/mL] |
| --- | --- |
| O=C1c2ccccc2-n2c1nc1ccccc1c2=O [TRYPTANTHRIN] | 0.5 (≈ 2.01 µM) |
| NNC(=O)c1ccncc1 [ISONIAZID] | 4 (≈ 29.2 µM) |
